Assay [1] has as its target Potassium voltage-gated channel subfamily KQT member 2 (Rattus norvegicus, UniProt O88943). As to the kind of experiment: KCNQ2 potassium channel inhibitors, dose response, cell-based, automated electrophysiology, set II, rat KCNQ2 (AID 588637). In kind it is functional.
In assay [2] the target is T1, RNA-binding protein pos-1 (Caenorhabditis elegans, UniProt G5EF15).
T1 sequence (G5EF15 whole entry): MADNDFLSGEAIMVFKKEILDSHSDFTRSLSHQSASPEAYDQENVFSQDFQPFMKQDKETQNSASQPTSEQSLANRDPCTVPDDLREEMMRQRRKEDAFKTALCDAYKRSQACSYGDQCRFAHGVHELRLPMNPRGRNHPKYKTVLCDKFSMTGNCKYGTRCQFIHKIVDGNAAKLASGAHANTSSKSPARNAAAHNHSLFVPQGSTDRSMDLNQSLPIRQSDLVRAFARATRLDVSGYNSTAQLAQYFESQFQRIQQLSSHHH
As to the kind of experiment: inhibitors of POS-1/mex-3 RNA binding, dose response, biochemical, fluorescence polarization (AID 1964).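 Note: purified POS-1 fused to maltose binding protein made in E. coli; potency of compounds blocking POS-1 binding to fluorescent RNA.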

In assay [3] the target is T2, Zinc finger protein mex-5 (Caenorhabditis elegans, UniProt Q9XUB2).
T2 sequence (Q9XUB2 whole entry): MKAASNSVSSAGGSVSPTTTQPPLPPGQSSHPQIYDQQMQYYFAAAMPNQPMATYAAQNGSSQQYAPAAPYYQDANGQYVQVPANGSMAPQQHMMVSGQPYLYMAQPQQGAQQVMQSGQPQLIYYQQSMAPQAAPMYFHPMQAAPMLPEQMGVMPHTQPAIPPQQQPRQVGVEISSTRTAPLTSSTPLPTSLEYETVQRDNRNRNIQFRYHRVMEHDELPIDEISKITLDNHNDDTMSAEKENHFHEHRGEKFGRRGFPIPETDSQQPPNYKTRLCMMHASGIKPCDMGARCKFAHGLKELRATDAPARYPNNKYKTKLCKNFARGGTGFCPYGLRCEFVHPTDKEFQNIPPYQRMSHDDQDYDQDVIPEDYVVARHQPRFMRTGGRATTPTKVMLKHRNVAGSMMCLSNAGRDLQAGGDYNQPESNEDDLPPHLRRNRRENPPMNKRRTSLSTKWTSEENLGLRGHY
As to the kind of experiment: MEX-5/TCR-2 RNA interaction inhibitors, dose response, biochemical, C. elegans, fluorescence polarization (AID 1960).

Assay [4] concerns the target Dual specificity tyrosine-phosphorylation-regulated kinase 1A (Rattus norvegicus, UniProt Q63470). In kind it is biochemical, Homo sapiens.
In assay [5] the target is T3, Mitochondrial peptide methionine sulfoxide reductase (Bos taurus, UniProt P54149).
T3 sequence (P54149 whole entry): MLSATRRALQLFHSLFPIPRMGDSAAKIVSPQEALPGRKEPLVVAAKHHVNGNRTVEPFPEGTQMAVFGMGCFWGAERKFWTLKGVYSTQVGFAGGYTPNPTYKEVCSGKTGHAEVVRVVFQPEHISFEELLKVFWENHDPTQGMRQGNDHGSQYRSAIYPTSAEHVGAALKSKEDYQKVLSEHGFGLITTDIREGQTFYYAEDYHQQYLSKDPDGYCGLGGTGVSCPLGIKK
As to the kind of experiment: Absorbance-based biochemical high throughput dose response assay for activators of Methionine sulfoxide reductase A (MsrA). In kind it is functional.

Assay [6] addresses Tyrosine-protein phosphatase non-receptor type 11 (Homo sapiens, UniProt Q06124). As to the kind of experiment: SHP2 phosphatase inhibition, dose response, selectivity assay for STEP inhibitor project, biochemical (AID 602367). As to conditions: read-out: IC50_Mean. In kind it is functional.
For assay [7], the target named is Tyrosine-protein phosphatase non-receptor type 5 (Homo sapiens, UniProt P54829). As to the kind of experiment: STEP phosphatase inhibitors, confirmation, biochemical, fluorescence intensity, uHTS hits (AID 602372). As to conditions: read-out: IC50_Mean. In kind it is functional.
Assay [8] has as its target Dual specificity protein phosphatase 3 (Homo sapiens, UniProt P51452). As to the kind of experiment: VHR phosphatase inhibition, dose response, selectivity assay for STEP inhibitor project, biochemical (AID 602374). As to conditions: read-out: IC50_Mean. In kind it is functional.
A short description of assay [9]: ARNT/TACC3 interaction disruptors, potency, confirmation, biochemical, AlphaScreen, cherry-picked samples (AID 651703).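 Note: His-tagged ARNT PAS-B domain paired with GST-TACC3 E629A dimer coactivator fragment; potency of inhibitors that break up the complex and lower AlphaScreen signal.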 In kind it is functional, Homo sapiens.
Assay [10] has as its target T4, Rac GTPase-activating protein 1 (Homo sapiens, UniProt Q9H0H5).
T4 sequence (Q9H0H5 whole entry): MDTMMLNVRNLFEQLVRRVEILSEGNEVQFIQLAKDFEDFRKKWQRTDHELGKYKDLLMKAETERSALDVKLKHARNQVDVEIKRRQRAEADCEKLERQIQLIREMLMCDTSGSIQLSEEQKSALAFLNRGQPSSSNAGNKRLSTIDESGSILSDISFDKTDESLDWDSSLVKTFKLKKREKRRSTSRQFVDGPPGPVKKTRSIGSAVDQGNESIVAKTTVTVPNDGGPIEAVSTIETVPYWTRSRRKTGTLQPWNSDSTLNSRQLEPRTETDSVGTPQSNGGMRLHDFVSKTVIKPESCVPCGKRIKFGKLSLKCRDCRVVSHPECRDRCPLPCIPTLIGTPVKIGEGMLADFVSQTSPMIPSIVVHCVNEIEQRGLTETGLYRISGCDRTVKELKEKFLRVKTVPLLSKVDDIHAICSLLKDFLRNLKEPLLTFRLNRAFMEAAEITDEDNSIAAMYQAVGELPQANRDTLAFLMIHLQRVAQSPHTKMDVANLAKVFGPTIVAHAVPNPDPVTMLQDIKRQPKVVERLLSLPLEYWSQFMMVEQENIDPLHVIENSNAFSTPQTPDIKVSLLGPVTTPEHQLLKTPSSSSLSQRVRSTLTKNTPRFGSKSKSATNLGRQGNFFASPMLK
As to the kind of experiment: MgcRacGAP GTPase-activating activity inhibitors, confirmation, biochemical, ADP Hunter fluorescence, primary and confirmatory (AID 624330). In kind it is functional.

Another assay has as its target T5, Aurora kinase A (Homo sapiens, UniProt O14965).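 Note: value from the Navigating the Kinome kinase panel profiling, panel entry STK6.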
T5 sequence (O14965 whole entry): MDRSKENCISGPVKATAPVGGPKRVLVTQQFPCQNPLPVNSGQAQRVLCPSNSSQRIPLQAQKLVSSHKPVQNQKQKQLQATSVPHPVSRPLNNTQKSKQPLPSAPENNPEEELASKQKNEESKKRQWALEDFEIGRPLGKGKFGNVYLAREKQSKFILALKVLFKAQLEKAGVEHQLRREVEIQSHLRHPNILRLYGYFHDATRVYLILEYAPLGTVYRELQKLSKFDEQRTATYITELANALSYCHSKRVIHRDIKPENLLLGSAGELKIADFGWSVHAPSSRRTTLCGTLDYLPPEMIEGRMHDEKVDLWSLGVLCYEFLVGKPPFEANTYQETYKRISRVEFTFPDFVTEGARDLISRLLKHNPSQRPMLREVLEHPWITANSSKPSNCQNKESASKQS
In kind it is functional.

The target of assay [11] is Cyclin-dependent kinase 19 (Homo sapiens, UniProt Q9BWU1). As to the kind of experiment: Navigating the Kinome. Panel member name: CDC2L6. In kind it is functional.
The target in assay [12] is ALK tyrosine kinase receptor (Homo sapiens, UniProt Q9UM73). In kind it is functional.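 Note: ALK tested as one member of a kinase panel screen.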
The target in assay [13] is Tyrosine-protein kinase Lck (Homo sapiens, UniProt P06239). In kind it is functional.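 Note: lck was assayed as one member of a kinase panel.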
In assay [14] the target is Serine/threonine-protein kinase pim-1 (Homo sapiens, UniProt P11309). In kind it is functional.
The target in assay [15] is Tyrosine-protein kinase BTK (Homo sapiens, UniProt Q06187). In kind it is functional.
Assay [16] concerns the target T6, Serine/threonine-protein kinase TAO1 (Homo sapiens, UniProt Q7L7X3).
T6 sequence (Q7L7X3 whole entry): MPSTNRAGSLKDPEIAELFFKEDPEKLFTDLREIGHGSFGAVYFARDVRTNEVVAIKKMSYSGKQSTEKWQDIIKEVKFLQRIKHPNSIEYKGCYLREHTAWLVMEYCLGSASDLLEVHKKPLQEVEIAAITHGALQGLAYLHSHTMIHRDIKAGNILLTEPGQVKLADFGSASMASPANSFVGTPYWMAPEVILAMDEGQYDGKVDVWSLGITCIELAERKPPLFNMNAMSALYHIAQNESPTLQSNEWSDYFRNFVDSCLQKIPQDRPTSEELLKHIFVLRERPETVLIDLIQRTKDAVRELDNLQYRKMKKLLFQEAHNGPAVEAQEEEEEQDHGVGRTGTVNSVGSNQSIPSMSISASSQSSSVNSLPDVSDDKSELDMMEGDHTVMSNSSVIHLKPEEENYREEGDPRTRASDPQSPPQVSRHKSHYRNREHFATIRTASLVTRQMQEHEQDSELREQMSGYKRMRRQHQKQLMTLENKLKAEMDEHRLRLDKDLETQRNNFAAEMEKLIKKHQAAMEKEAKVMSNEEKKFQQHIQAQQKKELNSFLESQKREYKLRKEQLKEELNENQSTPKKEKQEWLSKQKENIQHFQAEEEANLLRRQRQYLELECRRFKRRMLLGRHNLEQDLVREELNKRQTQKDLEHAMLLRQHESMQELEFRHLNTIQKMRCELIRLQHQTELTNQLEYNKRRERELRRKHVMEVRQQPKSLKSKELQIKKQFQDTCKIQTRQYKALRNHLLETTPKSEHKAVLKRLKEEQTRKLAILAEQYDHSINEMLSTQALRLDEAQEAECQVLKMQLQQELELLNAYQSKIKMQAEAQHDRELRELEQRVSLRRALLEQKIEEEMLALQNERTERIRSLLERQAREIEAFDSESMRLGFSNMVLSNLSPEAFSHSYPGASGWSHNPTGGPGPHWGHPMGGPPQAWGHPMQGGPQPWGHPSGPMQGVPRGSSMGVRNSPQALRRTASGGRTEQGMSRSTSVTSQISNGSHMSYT
In kind it is functional.

For assay [17], the target named is Tyrosine-protein kinase Fyn (Homo sapiens, UniProt P06241). In kind it is functional.
For assay [18], the target named is BDNF/NT-3 growth factors receptor (Homo sapiens, UniProt Q16620). In kind it is functional.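 Note: NTRK2 measured as one member of a broad kinome-wide kinase profiling panel.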
Assay [19] has as its target Dual specificity protein kinase CLK4 (Homo sapiens, UniProt Q9HAZ1). In kind it is functional.

Calls of active or inactive are those of the source.

Potassium voltage-gated channel subfamily KQT member 2, sequence (O88943 whole entry): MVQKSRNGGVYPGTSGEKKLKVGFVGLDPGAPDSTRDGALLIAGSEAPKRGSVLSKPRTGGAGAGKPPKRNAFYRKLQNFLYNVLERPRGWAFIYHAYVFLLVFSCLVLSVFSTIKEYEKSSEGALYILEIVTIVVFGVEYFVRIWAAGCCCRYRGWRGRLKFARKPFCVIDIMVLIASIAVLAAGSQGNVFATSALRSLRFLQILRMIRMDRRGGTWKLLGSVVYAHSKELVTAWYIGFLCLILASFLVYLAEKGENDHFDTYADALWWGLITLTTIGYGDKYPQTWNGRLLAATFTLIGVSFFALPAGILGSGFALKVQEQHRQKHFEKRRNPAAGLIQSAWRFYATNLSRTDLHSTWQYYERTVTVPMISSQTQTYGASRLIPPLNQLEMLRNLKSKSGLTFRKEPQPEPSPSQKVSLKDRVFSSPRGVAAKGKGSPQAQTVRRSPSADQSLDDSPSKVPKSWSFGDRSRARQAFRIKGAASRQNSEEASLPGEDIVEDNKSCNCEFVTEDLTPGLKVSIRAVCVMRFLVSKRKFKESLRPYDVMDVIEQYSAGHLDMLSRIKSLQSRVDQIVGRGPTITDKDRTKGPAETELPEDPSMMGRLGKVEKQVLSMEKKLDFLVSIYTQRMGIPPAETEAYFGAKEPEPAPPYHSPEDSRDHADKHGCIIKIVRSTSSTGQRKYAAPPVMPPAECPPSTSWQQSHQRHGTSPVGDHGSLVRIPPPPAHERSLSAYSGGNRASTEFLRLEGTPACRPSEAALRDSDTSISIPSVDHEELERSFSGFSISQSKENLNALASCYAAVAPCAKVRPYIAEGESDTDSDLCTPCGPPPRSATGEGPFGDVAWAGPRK
Tyrosine-protein kinase BTK, sequence (Q06187 whole entry): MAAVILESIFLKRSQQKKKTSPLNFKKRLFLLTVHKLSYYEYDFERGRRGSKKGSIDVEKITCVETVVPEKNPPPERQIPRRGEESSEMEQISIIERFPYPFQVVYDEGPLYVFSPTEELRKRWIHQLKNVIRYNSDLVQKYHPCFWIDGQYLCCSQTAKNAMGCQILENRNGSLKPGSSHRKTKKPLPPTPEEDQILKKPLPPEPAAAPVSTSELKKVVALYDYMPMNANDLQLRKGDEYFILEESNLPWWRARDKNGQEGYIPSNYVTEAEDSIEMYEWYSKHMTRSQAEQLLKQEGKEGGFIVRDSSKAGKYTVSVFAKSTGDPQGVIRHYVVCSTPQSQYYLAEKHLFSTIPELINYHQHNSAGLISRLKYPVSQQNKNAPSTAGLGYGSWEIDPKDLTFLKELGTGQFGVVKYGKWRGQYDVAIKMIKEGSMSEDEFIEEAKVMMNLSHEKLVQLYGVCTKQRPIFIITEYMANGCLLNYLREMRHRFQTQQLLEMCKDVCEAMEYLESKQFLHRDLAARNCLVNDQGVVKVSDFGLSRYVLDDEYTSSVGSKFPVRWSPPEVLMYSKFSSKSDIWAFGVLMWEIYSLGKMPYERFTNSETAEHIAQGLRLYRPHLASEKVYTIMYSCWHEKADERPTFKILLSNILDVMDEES
Tyrosine-protein phosphatase non-receptor type 11, sequence (Q06124 whole entry): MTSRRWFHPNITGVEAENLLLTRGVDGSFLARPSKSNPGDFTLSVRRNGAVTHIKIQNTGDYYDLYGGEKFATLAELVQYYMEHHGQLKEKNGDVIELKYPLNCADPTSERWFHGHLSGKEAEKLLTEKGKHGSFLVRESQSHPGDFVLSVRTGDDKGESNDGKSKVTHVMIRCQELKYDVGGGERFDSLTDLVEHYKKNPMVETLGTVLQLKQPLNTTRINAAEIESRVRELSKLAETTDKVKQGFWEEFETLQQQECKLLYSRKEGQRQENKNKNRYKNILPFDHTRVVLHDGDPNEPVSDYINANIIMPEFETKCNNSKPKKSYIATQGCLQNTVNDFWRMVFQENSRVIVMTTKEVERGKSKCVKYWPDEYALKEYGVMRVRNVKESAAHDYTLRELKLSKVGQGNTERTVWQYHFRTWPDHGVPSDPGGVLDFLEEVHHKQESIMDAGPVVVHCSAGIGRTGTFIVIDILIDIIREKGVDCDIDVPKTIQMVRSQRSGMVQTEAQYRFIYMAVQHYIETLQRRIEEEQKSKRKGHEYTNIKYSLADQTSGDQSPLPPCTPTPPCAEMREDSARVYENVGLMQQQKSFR
Tyrosine-protein kinase Lck, sequence (P06239 whole entry): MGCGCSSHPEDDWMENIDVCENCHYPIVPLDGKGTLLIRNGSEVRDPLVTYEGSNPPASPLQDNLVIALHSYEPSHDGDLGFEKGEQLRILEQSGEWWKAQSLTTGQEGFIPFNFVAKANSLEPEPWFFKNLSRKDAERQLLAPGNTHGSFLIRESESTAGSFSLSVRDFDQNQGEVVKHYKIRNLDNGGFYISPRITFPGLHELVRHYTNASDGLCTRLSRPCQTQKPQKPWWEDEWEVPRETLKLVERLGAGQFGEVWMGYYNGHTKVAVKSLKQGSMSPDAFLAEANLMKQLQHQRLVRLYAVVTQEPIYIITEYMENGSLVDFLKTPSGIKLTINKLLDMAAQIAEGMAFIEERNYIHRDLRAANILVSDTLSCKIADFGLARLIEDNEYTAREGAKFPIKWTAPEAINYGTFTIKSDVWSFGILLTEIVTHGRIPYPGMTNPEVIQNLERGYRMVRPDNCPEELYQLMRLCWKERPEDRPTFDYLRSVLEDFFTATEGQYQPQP
Serine/threonine-protein kinase pim-1, sequence (P11309 whole entry): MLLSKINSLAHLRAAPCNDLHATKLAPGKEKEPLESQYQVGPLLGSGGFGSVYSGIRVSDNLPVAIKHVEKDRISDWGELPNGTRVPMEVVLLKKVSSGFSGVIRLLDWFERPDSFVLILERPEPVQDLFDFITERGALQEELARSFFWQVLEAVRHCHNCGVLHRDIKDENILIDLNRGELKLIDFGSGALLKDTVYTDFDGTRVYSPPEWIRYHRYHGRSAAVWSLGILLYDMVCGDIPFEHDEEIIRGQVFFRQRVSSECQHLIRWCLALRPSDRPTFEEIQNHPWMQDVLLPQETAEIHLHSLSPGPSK
Dual specificity protein phosphatase 3, sequence (P51452 whole entry, the tested form may be a part): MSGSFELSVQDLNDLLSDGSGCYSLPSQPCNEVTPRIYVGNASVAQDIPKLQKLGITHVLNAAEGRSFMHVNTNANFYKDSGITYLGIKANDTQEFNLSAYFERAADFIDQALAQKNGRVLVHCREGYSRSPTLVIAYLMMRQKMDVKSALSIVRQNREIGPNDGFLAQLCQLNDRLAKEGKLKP
Cyclin-dependent kinase 19, sequence (Q9BWU1 whole entry): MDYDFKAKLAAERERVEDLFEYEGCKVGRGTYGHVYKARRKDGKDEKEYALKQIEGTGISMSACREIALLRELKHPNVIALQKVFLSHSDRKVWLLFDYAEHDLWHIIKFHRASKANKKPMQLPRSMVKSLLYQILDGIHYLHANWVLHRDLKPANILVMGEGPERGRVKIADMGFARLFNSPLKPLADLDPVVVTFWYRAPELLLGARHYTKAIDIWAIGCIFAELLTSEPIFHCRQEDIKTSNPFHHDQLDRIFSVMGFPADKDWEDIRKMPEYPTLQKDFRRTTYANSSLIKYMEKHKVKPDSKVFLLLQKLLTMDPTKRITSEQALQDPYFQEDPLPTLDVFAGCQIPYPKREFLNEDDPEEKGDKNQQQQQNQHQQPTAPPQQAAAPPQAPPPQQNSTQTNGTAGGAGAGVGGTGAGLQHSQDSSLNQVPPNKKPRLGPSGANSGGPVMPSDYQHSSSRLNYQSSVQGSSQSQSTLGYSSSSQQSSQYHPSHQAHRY
Tyrosine-protein kinase Fyn, sequence (P06241 whole entry): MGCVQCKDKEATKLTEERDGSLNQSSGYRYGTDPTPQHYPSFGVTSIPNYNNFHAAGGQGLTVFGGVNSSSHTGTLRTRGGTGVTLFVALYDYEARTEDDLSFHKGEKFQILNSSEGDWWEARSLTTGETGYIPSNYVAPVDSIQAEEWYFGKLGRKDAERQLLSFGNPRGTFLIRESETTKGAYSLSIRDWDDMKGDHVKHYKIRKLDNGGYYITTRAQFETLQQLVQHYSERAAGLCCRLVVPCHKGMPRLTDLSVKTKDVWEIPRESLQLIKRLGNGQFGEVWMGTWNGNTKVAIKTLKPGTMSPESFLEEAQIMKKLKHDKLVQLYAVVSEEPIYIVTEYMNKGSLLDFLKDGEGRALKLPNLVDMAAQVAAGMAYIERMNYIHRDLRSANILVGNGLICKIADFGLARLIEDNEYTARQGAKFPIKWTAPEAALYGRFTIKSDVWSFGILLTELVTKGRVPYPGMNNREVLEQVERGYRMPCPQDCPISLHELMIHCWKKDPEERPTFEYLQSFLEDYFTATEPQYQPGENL
Tyrosine-protein phosphatase non-receptor type 5, sequence (P54829 whole entry): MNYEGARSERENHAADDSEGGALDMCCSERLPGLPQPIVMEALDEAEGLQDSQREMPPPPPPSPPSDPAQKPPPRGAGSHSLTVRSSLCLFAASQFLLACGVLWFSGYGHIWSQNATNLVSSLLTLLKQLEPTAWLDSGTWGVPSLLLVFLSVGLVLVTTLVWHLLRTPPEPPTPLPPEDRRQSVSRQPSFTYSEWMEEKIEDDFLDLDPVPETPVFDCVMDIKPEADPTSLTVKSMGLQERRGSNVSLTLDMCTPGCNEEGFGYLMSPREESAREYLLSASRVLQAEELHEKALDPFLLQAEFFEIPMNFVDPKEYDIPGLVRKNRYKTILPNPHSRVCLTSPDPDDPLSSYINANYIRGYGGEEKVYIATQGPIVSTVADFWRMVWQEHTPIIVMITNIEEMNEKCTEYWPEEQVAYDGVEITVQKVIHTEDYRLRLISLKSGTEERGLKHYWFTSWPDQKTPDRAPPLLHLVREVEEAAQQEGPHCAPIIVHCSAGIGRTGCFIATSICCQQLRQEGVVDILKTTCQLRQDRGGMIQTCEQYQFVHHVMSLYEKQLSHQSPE

For the compound `COc1ccc(Nc2ccccc2NC(=O)c2ccccc2Br)cc1`, the IC50 in [1] was 4.81 µM (active).
Consider `Cc1ccc2c(C)c(C(=O)N3CCN(c4ncccn4)CC3)oc2c1C`, for which the IC50 in assay [1] is 4.2 µM (active).
Turning to `O=C1c2ccccc2C(=O)c2[nH]cnc21`, the results for the EC50 in assay [2], in assay [3] and in [5] were > 300 µM (not active), 85.6 µM (active) and > 104 µM (inactive), respectively. Also, the concentration at half-maximal activity (AC50) in assay [4] is 7.57 µM (active).
On to `CCOC(=O)c1c(NC(=O)OC)sc(C(=O)N(CC)CC)c1C`, for which the IC50 was 4.3 µM (active) in [6], 28.4 µM (inactive) in [7] and 1.56 µM (active) in assay [8].
As for `FC(F)(F)c1cnc(-c2cnc(-c3ccccn3)nc2)c(Cl)c1`, the half-maximal activity concentration (AC50) in assay [9] was 75.3 µM (active).
In the case of `Nc1nc(=S)ss1`, the EC50 in assay [5] is 10.3 µM (inactive). In assay [10], the IC50 is 301 µM (active).
For `Cc1ccc(NC(=O)Nc2ccc(-c3c(Cc4cccnc4)sc4ncnc(N)c34)cc2)cc1`, the Ki is 0.0631 µM (active) at Aurora kinase A and > 100 µM (inactive) in [11].
`O=C(Nc1ccccc1N1CCCC1)c1ccc2ccccc2n1`: the Ki in assay [12], in assay [13], in assay [14], in [15], in [16] and in [17] was > 6.31 µM (inactive) throughout. In addition, the figures for the Ki in assay [18] and in [19] were 0.631 µM (active) and 1.26 µM (active), respectively.

(Values after ChEMBL document CHEMBL1201862, “PubChem BioAssay data set” (2004).)
